Experiments:
[1] = test system: tumor cells; assay: Growth in mice of a small number of tumor cells pre-treated with PGE2; format: in vivo; details: about 1000 tumor cells treated with PGE2 versus non-treated cells
Experimental: (§1) Growth of Fluc-labeled tumor cells in vivo was followed through non-invasive bioluminescence imaging using the IVIS200 instrument (Caliper Life Sciences, Hopkinton, Mass). Mice to be imaged were injected with 150 mg/kg of D-luciferin (obtained from Caliper Life Sciences) intraperitoneally in 200 μl of PBS and then anesthetized with continuous flow of isofluorane. Imaging of the mice was carried out 10 minutes later. The time between injection and imaging were kept constant among different batches of mice.
(§2) Different approaches were used to establish tumor growth than traditionally adopted by other studies. In most of the studies by the present inventors, a very small number of Fluc-labeled tumor cells (500-1000 cells each) was injected either alone or together with other unlabeled cells (either tumor cells or fibroblast cells) that are either irradiated or un-irradiated. Tumor growth from these cells was monitored through the quantification of bioluminescence signals emitted from labeled tumor cells using IVIS200 instrument following manufacturer's instructions. In some cases, 500-1000 Fluc labeled tumor cells were injected into (7-9 mm in diameter) tumors that have been established from unlabeled tumor cells.

[2] = test system: 4T1 cells; assay: Growth of tumor cells injected intratumorally into established tumors in mice, 4T1; format: in vivo, mouse; details: indomethacin administration
Experimental: as §1
as §2, with “cells. […]” for “cells.”

[3] = test system: HCT116 cells; assay: Growth of tumor cells injected intratumorally into established tumors in mice, HCT116; format: in vivo, human; details: indomethacin administration
Experimental: as §1
as §2, with “cells. […]” for “cells.”

Row | SMILES | growth of treated tumor cells when injected into mice [1] | growth of intratumorally injected 4T1 cells [2] | growth of intratumorally injected HCT116 cells [3]
1 | CCCCC[C@H](O)/C=C/[C@H]1[C@H](O)CC(=O)[C@@H]1C/C=C\CCCC(=O)O [PGE2, prostaglandin E2] | grow at a faster pace than non-treated cells |  | 
2 | COc1ccc2c(c1)c(CC(=O)O)c(C)n2C(=O)c1ccc(Cl)cc1 [indomethacin] |  | effectively suppressed growth | effectively suppressed growth

Reference: patent publication US20150190456A1, “USE OF CASPASE 3 ACTIVITY AND ITS INHIBITORS” (THE REGENTS OF THE UNIVERSITY OF COLORADO, priority 2011, published 2015)
